Results: USRE38825E1, “Glyphosate tolerant plants” (Monsanto Technology LLC, priority 1990, dated 2005)
Where two headings read alike, the source gives them in different places.

Assays:
[1] = tested on: most plant species; conditions: in vivo; cited from earlier work
[2] = tested on: most plant species; conditions: Franz, 1985; cited from earlier work
[3] = tested on: glyphosate oxidoreductase; experiment: Glyphosate oxidoreductase activity in isolated chloroplasts from transgenic tobacco; assay type: biochemical, Nicotiana tabacum; conditions: substrate 50 mM; 30 minute assays; without ubiquinone; chloroplasts of plants #22844, 22854, 22886, 22887
[4] = biological target: LBAA glyphosate oxidoreductase variant v.247 (v1v2v3: GLY84, ARG153, ARG334), SEQ ID NO:18 (Ochrobactrum sp. G-1, UniProt D2KI28, H334R/K153R/S2A/S84G); experiment: Kinetic analysis of glyphosate oxidoreductase variant v.247; assay type: biochemical, bacterial isolate LBAA (Pseudomonas strain LBAA); conditions: v.247
Procedure: The mutagenesis procedure used was that of Mn++-poisoned PCR and the template was a linearized glyphosate oxidoreductase gene plasmid containing the synthetic glyphosate oxidoreductase gene (SEQ ID NO:8). The oligonucleotide primers used were homologous to regions in the vector and flanking the glyphosate oxidoreductase gene. The PCR conditions employed were as follows: 1 minute at 94° C., 2 minutes at 55° C., and 3 minutes at 72° C. and with 35 cycles. A 5:1 ratio of dCTP+dGTP+TTP to dATP was used. The reactions contained MnCl2 at 125, 250, 375, or 500 μM. After the reaction, the amplified product was recloned into a vector containing a weak E. coli promoter. This vector was a pBR327 derivative containing the araBAD promoter and suitable cloning sites. One hundred colonies from this cloning step were then screened in E. coli GB993 for improved glyphosate tolerance and utilization phenotypes in media composed of MOPS minimal medium with glyphosate and Pi or with glyphosate alone, respectively. Growth rates were determined by measuring A550 over a 96 hour period. […] The glyphosate oxidoreductase gene was recloned into the expression vector portion and this phenotype verified. All kinetic analysis was performed on crude E. coli lysates. Putative glyphosate oxidoreductase variant proteins were overexpressed after subcloning the NcoI/HindIII variant glyphosate oxidoreductase gene into PrecA-gene10L expression vector. For overexpression in PrecA-gene10L constructs, GB993 cells containing the vector were induced at a Klett=110-120 in M9 minimal medium with 50 μg/ml nalidixic acid and allowed to grow for 2.5 hours at 37° C. with vigorous shaking. Cells were harvested by centrifugation at 4000 g, 5 minutes at 4° C., and resuspend in 100 mM Tris-HCl, pH 7.1, 1 mM EDTA, 35 mM KCl, 20% glycerol, and 1 mM benzamidine at 3 ml/g cell pellet. Lysates were prepared by breaking the cells in a French press, twice, at 1000 psi. Insoluble debris was removed by centrifugation at 12000 g, 15 minutes at 4° C., and the supernatant was de-salted by passing over a PD-10 column (Sephadex G-25, Pharmacia). The void volume fraction was used as the source of enzyme for kinetic analysis. Protein concentrations were determined using the Bio-Rad protein dye-binding assay. Time and enzyme concentration courses were performed to determine linear ranges. […] Ten minutes was determined to be the optimal time for the enzyme assay using 10 μg lysate. After 10 minutes at 30° C. with shaking, 0.25 ml dinitrophenylhydrazine (DNPH) reagent (0.5 mg/ml in 0.5M HCl) was added and the reaction was allowed to proceed for an additional 5 minutes at 30° C. with shaking. A 1.5M NaOH solution (400 μl) was then added to the assay mix, and the reaction was continued for 5 minutes at 30° C. with shaking. Enzyme activity was determined from the amount of glyoxylate-DNPH adduct formed by measuring A520 against a standard of glyoxylate. Enzyme assays are performed in duplicate on at least two different single colony isolates of a putative glyphosate oxidoreductase variant. To determine Km and Vmax, enzyme assays were performed over a (0.2-2.0)×Km range of glyphosate concentrations. The Km and Vmax were determined from Lineweaver Burk, Eadie-Hofstee and hyperbolic kinetic plots. Vmax was estimated after determining the amount of immunoreactive glyphosate oxidoreductase protein in lysates by immunoblot analysis as described below. Immunoblot analysis was performed following SDS-PAGE and transfer of protein from the gel to nitrocellulose at 500 mA in a Hoeffer transfer apparatus in 25 mM Tris-HCl, 192 mM glycine containing 0.1% SDS and 25% methanol for 1-2 hours. After transfer, the nitrocellulose was incubated with 50 mM Tris-HCl, pH7.5, 0.9% NaCl, 0.01% Tween 20, 0.02% NaN3 containing 2% bovine serum albumin at room temperature with shaking for at least 30 minutes. […]

[5] = biological target: LBAA glyphosate oxidoreductase variant ARG 334 (His334 to Arg) (Ochrobactrum sp. G-1, UniProt D2KI28, H334R/S2A); experiment: Kinetic analysis of glyphosate oxidoreductase variant ARG 334 (site-directed mutagenesis); assay type: biochemical, bacterial isolate LBAA (Pseudomonas strain LBAA)
[6] = tested on: glyphosate oxido-reductase from LBAA; experiment: Glyphosate oxidoreductase reaction with substrates; assay type: biochemical; conditions: oxidation to glycine and glyoxylate
Description: The enzyme glyphosate oxidoreductase catalyzes the cleavage of the C-N bond of glyphosate yielding aminomethyl phosphonate (AMPA) and glyoxylate as the reaction products. Under aerobic conditions, oxygen is utilized as a cosubstrate for the reaction. Other electron carriers such as phenazine methosulfate and ubiquinone stimulate the reaction under aerobic conditions. In the absence of oxygen, these compounds act as electron acceptors.
The enzymatic reaction can be assayed by oxygen uptake using an oxygen electrode. […] This enzyme has a stoichiometry of two moles of glyphosate oxidized per mole of oxygen consumed and produces two moles each of AMPA and glyoxylate as reaction products.
In addition to glyphosate, glyphosate oxido-reductase from LBAA oxidizes iminodiacetic acid (IDA) to glycine and glyoxylate.

[7] = Kinetic analysis of glyphosate oxidoreductase variants in crude E. coli lysates (glyoxylate-DNPH assay), substrate glyphosate; assay type: biochemical; conditions: 25 mM glyphosate
Description: Using this PCR approach, glyphosate oxidoreductase genes from a number of sources have been isolated. The presence of the glyphosate oxidoreductase activity was confirmed by cloning the glyphosate oxidoreductase gene from chromosomal DNA prepared from Pseudomonas sp. strain LBr (Jacob et al., 1988) and using primers homologous to the N- and C-termini of the LBAA glyphosate oxidoreductase gene and containing the following suitable restriction cloning sites: 5′-[…]-3′ (SEQ ID NO:13) and 5′-[…]-3′ (SEQ ID NO:14). Cyclotherm parameters used for these PCR reactions is as follows: • Denature at 94° C. for 1 minute; • Anneal at 60° C. for 2 minutes; • Polymerize at 72° C. for 3 minutes, • 30 cycles, no autoextension, linked to 4° C. incubation. […]
A population of bacteria was isolated from a fixed-bed immobilized cell column, which employed Mannville R-635 diatomaceous earth beads, by plating on Tryptone Soy Agar (Difco), containing cylcoheximide at 100 ug/ml, and incubating at 28° C. […] The glyphosate oxidoreductase activity was assayed and the Km for glyphosate also determined:
The mutagenesis procedure used was that of Mn++-poisoned PCR and the template was a linearized glyphosate oxidoreductase gene plasmid containing the synthetic glyphosate oxidoreductase gene (SEQ ID NO:8). […] Growth rates were determined by measuring A550 over a 96 hour period. […]

NCP(=O)(O)O [AMPA, aminomethylphosphonate]
phytotoxicity [1]: much less phytotoxic than glyphosate | phytotoxicity [2]: much less phytotoxic than glyphosate

O=C(O)CNCP(=O)(O)O [Glyphosate, N-phosphonomethyl-glycine]
Specific Activity [3]: 92 nmol/min/mg

O=C(O)CNCC(=O)O [IDA, iminodiacetic acid]
Km ([4]; read-out: spp Km (IDA), pH 7.4, 30° C., crude E. coli lysate): 700 µM | VmKm (IDA) [4]: 1.0 | app Vm (IDA) ([4]; pH 7.4, 30° C.): 0.7 U/mg | VmKm (IDA) [5]: 1.2 | app Vm (IDA) [5]: 0.6 U/mg | Km ([5]; read-out: spp Km (IDA)): 500 µM

O=C(O)CNCC(=O)O [Iminodiacetic acid, iminodiacetic acid]
rate of the reaction [6]: significantly faster than with glyphosate | Specific Activity [3]: 179 nmol/min/mg

B1: v.247: glyphosate oxidoreductase variant (SEQ ID NO:18); GLY84, ARG153, ARG334 (protein)
chain: MAENHKKVGIAGAGIVGVCTALMLQRRGFKVTLIDPNPPGEGASFGNAGCFNGSSVVPMSMPGNLTSVPKWLLDPMGPLSIRFGYFPTIMPWLIRFLLAGRPNKVKEQAKALRNLIKSTVPLIKSLAEEADASHLIRHEGHLTVYRGEADFARDRGGWELRRLNGVRTQILSADALRDFDPNLSHAFTKGILIEENGHTINPQGLVTLLFRRFIANGGEFVSARVIGFETEGRALKGITTTNGVLAVDAAVVAAGAHSKSLANSLGDDIPLDTERGYHIVIANPEAAPRIPTTDASGKFIATPMEMGLRVAGTVEFAGLTAAPNWKRAHVLYTRARKLLPALAPASSEERYSKWMGFRPSIPDSLPVIGRATRTPDVIYAFGHGHLGMTGAPMTATLVSELLAGEKTSIDISPFAPNRFGIGKSKQTGPAS
fold higher specific activity for glyphosate oxidoreductase [7]: 3-4 fold
